These results are taken from patent US20260062412A1, “NITROGEN-CONTAINING HETEROCYCLIC COMPOUND HAVING MYT1 INHIBITORY ACTIVITY” (CHUGAI SEIYAKU KABUSHIKI KAISHA, priority 2023, published 2026).

The target in test [1] is T1, MYT1 protein (Homo sapiens (Human), UniProt Q99640). Description: MYT1 kinase activity inhibition test (ELISA, phosphorylation of Y15 of CDK1). The test is classed as biochemical. The settings on record: phosphorylation level of Y15 of CDK1 protein caused by MYT1 protein, 60 minutes. How it is done: The MYT1 kinase activity inhibitory capacity of each compound was evaluated by evaluating the phosphorylation level of Y15 of CDK1 protein caused by MYT1 protein, by ELISA. The kit of CycLex Weel Kinase Assay/Inhibitor Screening Kit Ver. 3 (manufactured by MBL, CY-1172V3) was used. Using Kinase Buffer, 10 μL of 5 nM MYT1 protein (manufactured by Carna Biosciences, Inc.) was prepared. In addition, 30 μL of 83.3 μM of ATP was prepared using Kinase Buffer. In addition, 10 μL of each compound was diluted to each concentration using Kinase Buffer. 30 μL of ATP was added to the plate of the kit, and thereafter, 10 μL of each compound was added thereto. Further, 10 μL of the diluted MYT1 protein solution was added thereto, and then the mixture was mixed, which was allowed to stand at room temperature for 60 minutes. The reaction solution was removed from each well, and each well was washed using Wash Buffer. After Wash Buffer was removed, 100 μL of HRP conjugated Anti-phospho-tyrosine antibody was added to each well, which was allowed to stand at room temperature for 60 minutes. Thereafter, the reaction solution was removed from each well, and each well was washed using Wash Buffer. After Wash Buffer was removed, 100 μL of Substrate Reagent was added to each well, which was allowed to stand at room temperature for 8 minutes. Thereafter, 100 μL of Stop Solution (1 N sulfuric acid) was added to each well according to the manual. Absorbances at 450 nm and 590 nm were measured using Envision (manufactured by PerkinElmer). The phosphorylation level of CDK1 protein was evaluated for each well by subtracting the absorbance at 590 nm from the absorbance at 450 nm. The inhibition rate of each compound added at each concentration was calculated by setting the signal when the compound was not added as 100% and the signal when MYT1 protein was not added as 0%, and the calculation results of IC50 were shown in Table 4.
In general terms: An ELISA detects its analyte on a solid surface through an enzyme-linked reagent.

For test [2], the target named is T1, MYT1 protein. Description: Test for binding to ATP binding site of MYT1 (Kinase Tracer 178 / Eu-Anti-GST antibody TR-FRET). The conditions noted are these: ATP binding site of MYT1, 30 minutes at room temperature.
The next test relates to LU65. Description: Cytotoxicity test with pemetrexed upon addition of each example compound (CellTiter-Glo). Format: cell-based, human. The conditions noted are these: combination with pemetrexed, LU65 cells, 7 days; maximum value, at the MYT1 inhibitor and pemetrexed concentrations. How it is done: LU65 (received from human tissue bank (JCRB Cell Bank)) was used in the evaluation of the present invention. LU65 is a lung cancer cell line having a truncated deletion mutation of S82* in RB1 gene (see Nature. 2019 May; 569(7757): 503-508. (Non Patent Literature 22)), in which the function of RB1 is decreased. The cell culture was carried out using RPMI-1640 (manufactured by SIGMA) containing 10% FBS (manufactured by SIGMA).
Each pemetrexed (manufactured by Tokyo Kasei Kogyo Co., Ltd.) and each example compound of each concentration were diluted using a DMSO solution, and 0.04 μL of each of series of dilution and DMSO was added to each well of cell culture plate using Echo 555 Liquid Handler (manufactured by Beckman Coulter Inc.). 1000 LU65 cells ([…]) were added to each well, which was cultured at 37° C. in a 5% CO2 incubator for 7 days. Intracellular ATP level which is a cell survival marker was measured and used in the monitoring of cell number. After culturing, 20 μL of CellTiter-Glo (registered trademark) 2.0 (manufactured by Promega) was added to each well, and the emission intensity was measured using Multimode Plate Reader En Vision (registered trademark) Xcite (manufactured by PerkinElmer). The cell survival rate under each condition was calculated by setting the value obtained by subtracting the luminescence of the cell unseeded well from the luminescence of the DMSO-added well as 100%, and calculating the proportion of a value obtained by subtracting the luminescence of the cell unseeded well from the luminescence detected at each well.
In addition, the cytotoxic activity under each condition was calculated by subtracting the survival rate in a combination of pemetrexed of each treatment concentration and each example compound of each treatment concentration, from 100%.

T1 sequence (Q99640 whole entry): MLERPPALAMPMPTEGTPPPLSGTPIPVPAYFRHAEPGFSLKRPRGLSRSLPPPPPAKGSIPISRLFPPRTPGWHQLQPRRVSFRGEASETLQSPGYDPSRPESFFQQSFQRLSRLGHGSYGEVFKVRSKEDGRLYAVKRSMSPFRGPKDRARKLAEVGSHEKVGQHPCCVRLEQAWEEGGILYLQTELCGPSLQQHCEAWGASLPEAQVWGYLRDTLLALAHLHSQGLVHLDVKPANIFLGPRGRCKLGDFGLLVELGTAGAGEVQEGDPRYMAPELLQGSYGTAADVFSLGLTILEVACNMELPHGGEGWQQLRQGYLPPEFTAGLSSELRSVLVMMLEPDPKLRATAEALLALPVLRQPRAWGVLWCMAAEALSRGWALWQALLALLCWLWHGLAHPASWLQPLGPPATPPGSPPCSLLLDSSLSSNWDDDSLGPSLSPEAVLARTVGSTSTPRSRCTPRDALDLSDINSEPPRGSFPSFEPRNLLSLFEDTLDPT

`CCc1cc2c(-c3ccc(F)c4[nH]ncc34)c(N)c(=O)[nH]c2c2ccccc12` [Compound B23, 3-Amino-6-ethyl-4-(7-fluoro-1H-indazol-4-yl)-1H-benzo[h]quinolin-2-one]: the half-maximal inhibitory concentration (IC50) on MYT1 protein [1] came out at 0.26 nM. At MYT1 protein [2], this compound returned a half-maximal inhibitory concentration (IC50) of 8.3 nM. For the same compound, in the test with LU65, the “Bliss Score (Max)” value was 58% and the “HSA Score (MAX)” value stood at 63%.
The like results for `Nc1c(-c2ccc(F)c3[nH]ncc23)c2cc(C3CCC3)c3ccccc3c2[nH]c1=O` [Compound B24, 3-Amino-6-cyclobutyl-4-(7-fluoro-1H-indazol-4-yl)-1H-benzo[h]quinolin-2-one] were, in that order, 0.62 nM, 16 nM, 52% and 60%.
Regarding `Nc1c(-c2ccc(F)c3[nH]ncc23)c2ccc3ccccc3c2[nH]c1=O` [Compound B32, 3-Amino-4-(7-fluoro-1H-indazol-4-yl)-1H-benzo[h]quinolin-2-one], the half-maximal inhibitory concentration (IC50) against MYT1 protein [1] is 0.26 nM. Moreover, on MYT1 protein [2], the concentration for half-maximal inhibition (IC50) is 3 nM. Moreover, in the test on LU65, the “Bliss Score (Max)” value came out at 52% and the “HSA Score (MAX)” value is 63%.
Consider `Nc1c(-c2ccc(F)c3[nH]ncc23)c2cc(F)c3ccccc3c2[nH]c1=O` [Compound B35, 3-Amino-6-fluoro-4-(7-fluoro-1H-indazol-4-yl)-1H-benzo[h]quinolin-2-one], for which, at MYT1 protein [1], it took 0.44 nM to reach half-maximal inhibition (IC50). The compound also came in with an IC50 at MYT1 protein [2] of 3.7 nM. In addition, in the test on LU65, the “Bliss Score (Max)” value came to 61% and the “HSA Score (MAX)” value is 70%.
For `Nc1c(-c2ccc(Cl)c3[nH]ncc23)c2cc(C3CC3)c3ccccc3c2[nH]c1=O` [Compound B37, 3-Amino-4-(7-chloro-1H-indazol-4-yl)-6-cyclopropyl-1H-benzo[h]quinolin-2-one], the midpoint of inhibition at MYT1 protein [1], the IC50, lay at 0.75 nM. Moreover, at MYT1 protein [2], the half-inhibitory concentration (IC50) was 6 nM. Also, in the test with LU65, the “Bliss Score (Max)” value is given as 31% and the “HSA Score (MAX)” value came out at 34%.
For the compound `Nc1c(-c2cccc3[nH]ncc23)c2ccc3ccccc3c2[nH]c1=O` [Compound B46, 3-Amino-4-(1H-indazol-4-yl)-1H-benzo[h]quinolin-2-one], at MYT1 protein [1], half-maximal inhibition (IC50) required 6.4 nM. On MYT1 protein [2], the concentration for half-maximal inhibition (IC50) was found to be 6.3 nM. Besides, in the test with LU65, the “Bliss Score (Max)” value stood at 52% and the “HSA Score (MAX)” value is reported as 65%.
Regarding `Nc1c(-c2cccc3[nH]ncc23)c2cc(C3CC3)c3ccc(F)cc3c2[nH]c1=O` [Compound B47, 3-Amino-6-cyclopropyl-9-fluoro-4-(1H-indazol-4-yl)-1H-benzo[h]quinolin-2-one], the IC50 amounted to 1.1 nM against MYT1 protein [1] and 10 nM at MYT1 protein [2]. Moreover, in the test with LU65, the “Bliss Score (Max)” value is 54%. The “HSA Score (MAX)” value with LU65 turned out to be 62%.
The like results for `Cl.Nc1c(-c2cccc3[nH]ncc23)c2cc(C3CC3)c3cc(F)ccc3c2[nH]c1=O` [Compound B48, 3-Amino-6-cyclopropyl-8-fluoro-4-(1H-indazol-4-yl)-1H-benzo[h]quinolin-2-one; hydrochloride] were, in that order, 2.5 nM, 18 nM, 66% and 70%.
The like results for `Nc1c(-c2cccc3[nH]ncc23)c2cc(C3CC3)c3ccccc3c2[nH]c1=O` [Compound B49, 3-amino-6-cyclopropyl-4-(1H-indazol-4-yl)-1H-benzo[h]quinolin-2-one] were, in that order, 6.4 nM, 6.2 nM, 86% and 84%.
Consider `Nc1c(-c2ccc(F)c3[nH]ncc23)c2cc(Br)c3ncccc3c2[nH]c1=O` [Compound C1, 3-amino-6-bromo-4-(7-fluoro-1H-indazol-4-yl)-1H-1,7-phenanthrolin-2-one], for which the concentration for half-maximal inhibition (IC50) on MYT1 protein [1] is under 0.17 nM. This compound also had an IC50 at MYT1 protein [2] of 2 nM. For the same compound, in the test with LU65, the “Bliss Score (Max)” value was 59% and the “HSA Score (MAX)” value is given as 71%.
The like results for `COc1cc2c(-c3ccc(F)c4[nH]ncc34)c(N)c(=O)[nH]c2c2cccnc12` [Compound C4, 3-Amino-4-(7-fluoro-1H-indazol-4-yl)-6-methoxy-1H-1,7-phenanthrolin-2-one] were, in that order, 0.15 nM, 1.3 nM, 61% and 62%.
For the compound `CCOc1cc2c(-c3ccc(F)c4[nH]ncc34)c(N)c(=O)[nH]c2c2cccnc12` [Compound C8, 3-Amino-6-ethoxy-4-(7-fluoro-1H-indazol-4-yl)-1H-1,7-phenanthrolin-2-one], the 50% inhibitory concentration (IC50) against MYT1 protein [1] was 0.3 nM; on MYT1 protein [2], 1.6 nM. For the same compound, the “Bliss Score (Max)” value in the test on LU65 is reported as 68%. Besides, the “HSA Score (MAX)” value in the test on LU65 came out at 78%.
On MYT1 protein [1], `CC(C)Oc1cc2c(-c3ccc(F)c4[nH]ncc34)c(N)c(=O)[nH]c2c2cccnc12` [Compound C13, 3-Amino-4-(7-fluoro-1H-indazol-4-yl)-6-propan-2-yloxy-1H-1,7-phenanthrolin-2-one] showed an IC50 of 0.15 nM. The compound also came in with a concentration for half-maximal inhibition (IC50) at MYT1 protein [2] of 1.4 nM. Moreover, in the test on LU65, the “Bliss Score (Max)” value came out at 62% and the “HSA Score (MAX)” value stood at 66%.
For `Nc1c(-c2ccc(F)c3[nH]ncc23)c2cc(F)c3ncccc3c2[nH]c1=O` [Compound C64, 3-Amino-6-fluoro-4-(7-fluoro-1H-indazol-4-yl)-1H-1,7-phenanthrolin-2-one], the IC50 at MYT1 protein [1] was 0.2 nM; at MYT1 protein [2], 7.4 nM. The “Bliss Score (Max)” value in the test on LU65 is reported as 45%. In addition, the “HSA Score (MAX)” value in the test on LU65 is on record as 54%.
`COc1cc2c(-c3cc(F)c(F)c4[nH]ncc34)c(N)c(=O)[nH]c2c2cccnc12` [Compound C65, 3-Amino-4-(6,7-difluoro-1H-indazol-4-yl)-6-methoxy-1H-1,7-phenanthrolin-2-one] showed an IC50 at MYT1 protein [1] of 0.083 nM. At MYT1 protein [2], this compound showed an IC50 of 3.2 nM. Besides, in the test with LU65, the “Bliss Score (Max)” value turned out to be 53% and the “HSA Score (MAX)” value is 58%.
The like results for `CCOc1cc2c(-c3cc(F)c(F)c4[nH]ncc34)c(N)c(=O)[nH]c2c2cccnc12` [Compound C67, 3-Amino-4-(6,7-difluoro-1H-indazol-4-yl)-6-ethoxy-1H-1,7-phenanthrolin-2-one] were, in that order, 0.1 nM, 2.4 nM, 77% and 79%.
The like results for `CC(C)Oc1cc2c(-c3cc(F)c(F)c4[nH]ncc34)c(N)c(=O)[nH]c2c2cccnc12` [Compound C69, 3-Amino-4-(6,7-difluoro-1H-indazol-4-yl)-6-propan-2-yloxy-1H-1,7-phenanthrolin-2-one] were, in that order, 0.1 nM, 2 nM, 66% and 69%.
`COc1cc2c(-c3cc(F)c(Cl)c4[nH]ncc34)c(N)c(=O)[nH]c2c2cccnc12` [Compound C76, 3-Amino-4-(7-chloro-6-fluoro-1H-indazol-4-yl)-6-methoxy-1H-1,7-phenanthrolin-2-one] displayed a 50% inhibitory concentration (IC50) against MYT1 protein [1] of 0.092 nM. The same compound gave an IC50 at MYT1 protein [2] of 1.5 nM. For the same compound, in the test on LU65, the “Bliss Score (Max)” value came out at 68% and the “HSA Score (MAX)” value is 67%.
On to `Nc1c(-c2ccc(F)c3[nH]ncc23)c2cc(Cl)c3ncccc3c2[nH]c1=O` [Compound C78, 3-Amino-6-chloro-4-(7-fluoro-1H-indazol-4-yl)-1H-1,7-phenanthrolin-2-one], for which, at MYT1 protein [1], the IC50 was under 0.17 nM. Moreover, the IC50 on MYT1 protein [2] was 3.1 nM. Further, in the test with LU65, the “Bliss Score (Max)” value was found to be 53% and the “HSA Score (MAX)” value came out at 66%.

Usually IC50 stands for the concentration needed to halve the response being measured. A low value points to greater potency in that assay.
